Results on 13 molecules are retold here after paper PMC6150375, “Synthesis, Biological Evaluation and Molecular Docking Study of 2-Substituted-4,6-Diarylpyrimidines as α-Glucosidase Inhibitors” (Molecules : A Journal of Synthetic Chemistry and Natural …, 2017).

As usually defined, the melting point is the temperature of the solid-liquid transition. Regarding `Fc1ccccc1CSc1nc(-c2ccc(Br)cc2)cc(-c2ccc(Br)cc2)n1` [Compound 6d, 4,6-Bis(4-bromophenyl)-2-((2-fluorobenzyl)thio)pyrimidine], the melting point was in the range of 149 to 150 °C.

Consider `Clc1ccccc1CSc1nc(-c2ccc(Br)cc2)cc(-c2cccc(Br)c2)n1` [Compound 6s, 4-(3-Bromophenyl)-6-(4-bromophenyl)-2-((2-chlorobenzyl)thio)pyrimidine], for which the melting point lay within 129 to 132 °C. Next, `Cc1ccc(-c2cc(-c3ccc(Br)cc3)nc(SCc3cccc(F)c3)n2)cc1` [Compound 6n, 4-(4-Bromophenyl)-2-((3-fluorobenzyl)thio)-6-(p-tolyl)pyrimidine]: 106 to 109 °C; `Clc1ccc(CSc2nc(-c3ccc(Br)cc3)cc(-c3ccc(Br)cc3)n2)cc1` [Compound 6b, 4,6-Bis(4-bromophenyl)-2-((4-chlorobenzyl)thio)pyrimidine]: 176 to 178 °C; `Cc1ccc(-c2cc(-c3cccc(Br)c3)nc(SCc3ccccc3Cl)n2)cc1` [Compound 6f, 4-(3-Bromophenyl)-2-((2-chlorobenzyl)thio)-6-(p-tolyl)pyrimidine]: 107 to 110 °C.

As to `Cc1ccc(-c2cc(-c3ccc(Br)cc3)nc(SCc3ccccc3)n2)cc1` [Compound 6o, 2-(Benzylthio)-4-(4-bromophenyl)-6-(p-tolyl)pyrimidine], the melting point was in the range of 129 to 130 °C.

For the molecule `Fc1cccc(CSc2nc(-c3ccc(Br)cc3)cc(-c3cccc(Br)c3)n2)c1` [Compound 6t, 4-(3-Bromophenyl)-6-(4-bromophenyl)-2-((3-fluorobenzyl)thio)pyrimidine], the melting point lay within 94 to 96 °C. To `Cc1ccc(-c2cc(-c3cccc(Br)c3)nc(SCc3ccc(Br)cc3)n2)cc1` [Compound 6r, 2-((4-Bromobenzyl)thio)-4-(3-bromophenyl)-6-(p-tolyl)pyrimidine] belongs 135 to 138 °C; to `Cc1ccc(-c2cc(-c3ccc(Br)cc3)nc(SCc3ccccc3Br)n2)cc1` [Compound 6k, 2-((2-Bromobenzyl)thio)-4-(4-bromophenyl)-6-(p-tolyl)pyrimidine], 123 to 126 °C. For `Cc1ccc(-c2cc(-c3cccc(Br)c3)nc(SCc3ccccc3F)n2)cc1` [Compound 6i, 4-(3-Bromophenyl)-2-((2-fluorobenzyl)thio)-6-(p-tolyl)pyrimidine], the melting point was in the range of 100 to 104 °C. The molecule `Cc1ccc(-c2cc(-c3ccc(Br)cc3)nc(SCc3ccccc3F)n2)cc1` [Compound 6m, 4-(4-Bromophenyl)-2-((2-fluorobenzyl)thio)-6-(p-tolyl)pyrimidine] had a melting point of 124 to 127 °C.

`Clc1ccccc1CSc1nc(-c2ccc(Br)cc2)cc(-c2ccc(Br)cc2)n1` [Compound 6a, 4,6-Bis(4-bromophenyl)-2-((2-chlorobenzyl)thio)pyrimidine] showed a melting point of 147 to 148 °C. Molecule `Cc1ccc(-c2cc(-c3ccc(Br)cc3)nc(SCc3ccc(F)cc3)n2)cc1` [Compound 6l, 4-(4-Bromophenyl)-2-((4-fluorobenzyl)thio)-6-(p-tolyl)pyrimidine] had a melting point of 115 to 124 °C.
